Data published in patent publication US9340483B2, “Methods of treating amyotrophic lateral sclerosis” (Anida Pharma Inc., priority 2012, dated 2016).
Where “and” joins values, the source holds several entries; their conditions need not be identical. Identical values can stand only once. Entries after “also recorded” stand apart in the source; their conditions may differ.

Assays:
NSC34 cells = assay: Wst-1 cell viability assay after H2O2 + TNFα stress, motor neuron cell line; type: cell-based, mouse
Experimental: (§1) Pharma Inc.) were added to the growth medium. […] NPD1, or Compound 1 in Table 1, was analyzed for activity in NCS34 cells, a mouse motor neuron cell line. […] Treatment with H2O2 and 10 ng/ml TNFα caused between 26-37% cell death in the motor neurons (FIG. 1).

[1] = as above; type: cell-based, mouse; details: mouse; NPD 100 nM alone, 24 hrs incub., control (veh.) = 100
Experimental: as §1

C8-D1A cells = assay: Wst-1 cell viability assay after H2O2 + TNFα stress, astrocyte cell line
Excerpt: It is well-known in the art that inflammation and oxidative stress are significant contributors to neurodegeneration. H2O2 is commonly used in experiments to simulate oxidate stress. […] Accordingly, in this in vitro assay, TNF-alpha and hydrogen peroxide (H2O2) were used as stressors to induce cell death to model ALS.
Cell viability after treatment with H2O2 and TNFα was examined in NCS34 cells, a mouse motor neuron cell line, and in C8-D1A cells, a mouse astrocyte cell line (from the American Type Tissue Culture Collection). The protocol for assessing the activity of any of the compounds disclosed herein in cultured cells is as follows:
Day 1: Cells were plated into 96 well plates at a confluency of 60%. Cells were maintained in growth medium consisting of Dulbecco's Modified Essential Medium (DMEM, LifeTechnologies Inc.) supplemented with 10% fetal bovine serum (Hyclone) and incubated in a tissue culture incubator at 37° C., 95% […] and 5% CO2.
Day 2: The growth medium was changed to 200 μl/well DMEM without fetal bovine serum. Additional agents, such as varying concentrations of H2O2 (Sigma Aldrich Inc.), TNFalpha, and a vehicle control or any of the compounds disclosed herein, e.g., NPD1 (Anida Pharma Inc.) were added to the growth medium. The cells were incubated overnight for 24 hours in a tissue culture incubator at 37° C., 95% […] and 5% CO2
Day 3: After 24 hours, 20 μl of Wst-1 cell viability reagent (Roche Applied Sciences Inc.) was added to each well (1:10 dilution in growth medium). Mix well by gently rocking the plate side-to-side. The cells were incubated at 37° C. for 60 minutes. […] A background control (or blank) for the growth medium and WST-1 reagent (without cells) can also be measured. The 630 nm background absorbance values are then subtracted from the 450 nm measurement for a normalized 450 nm absorbance value.
NPD1 activity was analyzed in C8-D1A cells, a mouse astrocyte cell line (American Type Tissue Culture Collection). C8-D1A cells were treated with increasing concentrations of H2O2 (1 μM, 10 μM, 50 μM, 100 μM, 400 μM and 800 μM) and 10 ng/ml TNFα without NPD1, or with 50 nM or 100 nM NPD1 for 24 hours. Cell viability was determined by Wst-1 cell viability assay, as described in Example 1. Each sample was performed in triplicate.

[2] = NPD 100 nM + TNFa 10 ng/ml + H2O2 1 uM, 24 hrs
[3] = NPD 100 nM + TNFa 10 ng/ml + H2O2 10 uM, 24 hrs
[4] = NPD 100 nM + TNFa 10 ng/ml + H2O2 50 uM, 24 hrs
[5] = NPD 100 nM + TNFa 10 ng/ml + H2O2 100 uM, 24 hrs
[6] = NPD 100 nM + TNFa 10 ng/ml + H2O2 400 uM, 24 hrs
[7] = NPD 100 nM + TNFa 10 ng/ml + H2O2 800 uM, 24 hrs
[8] = 0 uM H2O2 + 10 ng/ml TNFa, 50 nM NPD1, 24 hours
[9] = 0 uM H2O2 + 10 ng/ml TNFa, 100 nM NPD1, 24 hours
[10] = 25 uM H2O2 + 10 ng/ml TNFa, 50 nM NPD1, 24 hours
[11] = 25 uM H2O2 + 10 ng/ml TNFa, 100 nM NPD1, 24 hours
[12] = 50 uM H2O2 + 10 ng/ml TNFa, 50 nM NPD1, 24 hours
[13] = 50 uM H2O2 + 10 ng/ml TNFa, 100 nM NPD1, 24 hours
[14] = 100 uM H2O2 + 10 ng/ml TNFa, 50 nM NPD1, 24 hours
[15] = 100 uM H2O2 + 10 ng/ml TNFa, 100 nM NPD1, 24 hours
[16] = 200 uM H2O2 + 10 ng/ml TNFa, 50 nM NPD1, 24 hours
[17] = 200 uM H2O2 + 10 ng/ml TNFa, 100 nM NPD1, 24 hours
[18] = 400 uM H2O2 + 10 ng/ml TNFa, 50 nM NPD1, 24 hours
[19] = 400 uM H2O2 + 10 ng/ml TNFa, 100 nM NPD1, 24 hours
[20] = 800 uM H2O2 + 10 ng/ml TNFa, 50 nM NPD1, 24 hours
[21] = 800 uM H2O2 + 10 ng/ml TNFa, 100 nM NPD1, 24 hours
[22] = Mus musculus, C8-D1A, read-out: % cell viability

## CC/C=C\C[C@H](O)\C=C/C=C/C=C/[C@H](O)C/C=C\C/C=C\CCC(=O)[O-].[Na+] [NPD1, Sodium 4Z,7Z,10R,11E,13E,15Z,17S, 19Z)-10,17-dihydroxydocosa-4,7,11,13,15,19-hexaenoate]
NSC34 cells; 100 nM NPD1, 24 hours with H2O2 and 10 ng/ml TNFα
  cell viability (in words): increased cell viability
NSC34 cells; Mus musculus, NSC-34, read-out: % cell viability
  viability at 0.1 µM: 78%
NSC34 cells; [2]
  % Cell Viability: 105.1%
  Avg Abs 450 nm: 0.7104
NSC34 cells; [3]
  % Cell Viability: 95.6%
  Avg Abs 450 nm: 0.645
NSC34 cells; NPD 100 nM + TNFa 10 ng/ml + H2O2 10 uM, 24 hrs, listed as NPD
  % Cell Viability: 95.45%
NSC34 cells; [4]
  % Cell Viability: 74.46%
  Avg Abs 450 nm: 0.5031
NSC34 cells; [5]
  % Cell Viability: 78.22%
  Avg Abs 450 nm: 0.5285
NSC34 cells; [6]
  % Cell Viability: 78.26%
  Avg Abs 450 nm: 0.5288
NSC34 cells; [7]
  % Cell Viability: 81.41%
  Avg Abs 450 nm: 0.5501
NSC34 cells; NPD 100 nM alone, 24 hrs incub.
  Avg Abs 450 nm: 0.6462
NSC34 cells; NPD1 100 nM vs TNFa + H2O2 alone
  Percent saved with NPD1 (14/36): 39%
NSC34 cells; NPD1 added to cells treated with 50-800 μM H2O2 and 10 ng/ml TNFα
  cell viability (in words): increases in cell viability
NSC34 cells; TNFa + H2O2 + NPD1 100 nM (TNFa + H2O2 alone: 36)
  % cells apoptosed: 22%
[1]
  viability at 24 h, 100 nM: 95.6%
C8-D1A cells; [8]
  absorbance after subtraction of background signal, avg: 0.586 and 0.5861
  absorbance after subtraction of background signal, replicates 1-3: 0.561 and 0.632 and 0.565
  raw absorbance Avg.: 1.03
  raw absorbance, replicates 1-3: 1.0047 and 1.0764 and 1.0093
C8-D1A cells; [9]
  absorbance after subtraction of background signal, avg: 0.593 and 0.5931
  absorbance after subtraction of background signal, replicates 1-3: 0.565 and 0.587 and 0.627
  raw absorbance Avg.: 1.037
  raw absorbance, replicates 1-3: 1.0312 and 1.071 and 1.009
C8-D1A cells; 50 nM or 100 nM NPD1, H2O2 + 10 ng/ml TNFα, 24 hours
  astrocyte cell survival and viability (in words): increased cell survival and viability in a dose-dependent manner; also recorded: increased astrocyte viability and reduced astrocyte death
C8-D1A cells; [10]
  absorbance after subtraction of background signal, avg: 0.560 and 0.5597
  absorbance after subtraction of background signal, replicates 1-3: 0.551 and 0.541 and 0.588
  raw absorbance Avg.: 1.004
  raw absorbance, replicates 1-3: 0.9946 and 0.985 and 1.0316
C8-D1A cells; [11]
  absorbance after subtraction of background signal, avg: 0.555 and 0.5549
  absorbance after subtraction of background signal, replicates 1-3: 0.563 and 0.524 and 0.578
  raw absorbance Avg.: 0.9989
  raw absorbance, replicates 1-3: 0.9676 and 1.0219 and 1.0073
C8-D1A cells; [12]
  absorbance after subtraction of background signal, avg: 0.392 and 0.3915
  absorbance after subtraction of background signal, replicates 1-3: 0.416 and 0.399 and 0.360
  raw absorbance Avg.: 0.8355
  raw absorbance, replicates 1-3: 0.8604 and 0.8427 and 0.8035
C8-D1A cells; [13]
  absorbance after subtraction of background signal, avg: 0.412 and 0.4123
  absorbance after subtraction of background signal, replicates 1-3: 0.434 and 0.390 and 0.414
  raw absorbance Avg.: 0.8563
  raw absorbance, replicates 1-3: 0.8335 and 0.8579 and 0.8776
C8-D1A cells; [14]
  absorbance after subtraction of background signal, avg: 0.070 and 0.07003
  absorbance after subtraction of background signal, replicates 1-3: 0.029 and 0.072 and 0.109
  raw absorbance Avg.: 0.514
  raw absorbance, replicates 1-3: 0.4731 and 0.5164 and 0.5526
C8-D1A cells; [15]
  absorbance after subtraction of background signal, avg: 0.128 and 0.1278
  absorbance after subtraction of background signal, replicates 1-3: 0.125 and 0.138 and 0.120
  raw absorbance Avg.: 0.5718
  raw absorbance, replicates 1-3: 0.5823 and 0.5639 and 0.5691
C8-D1A cells; [16]
  absorbance after subtraction of background signal, replicates 1-3: −0.021 and −0.023 and −0.022
  raw absorbance Avg.: 0.4217
  raw absorbance, replicates 1-3: 0.4228 and 0.4206 and 0.4217
C8-D1A cells; [17]
  absorbance after subtraction of background signal, replicates 1-3: −0.027 and −0.023 and −0.015
  raw absorbance Avg.: 0.4222
  raw absorbance, replicates 1-3: 0.4209 and 0.429 and 0.4166
C8-D1A cells; [18]
  absorbance after subtraction of background signal, replicates 1-3: −0.018 and −0.017 and −0.014
  raw absorbance Avg.: 0.4274
  raw absorbance, replicates 1-3: 0.4258 and 0.4267 and 0.4296
C8-D1A cells; [19]
  absorbance after subtraction of background signal, replicates 1-3: −0.015 and −0.016 and −0.013
  raw absorbance Avg.: 0.4291
  raw absorbance, replicates 1-3: 0.4277 and 0.4307 and 0.4289
C8-D1A cells; [20]
  absorbance after subtraction of background signal, replicates 1-3: −0.001 and −0.006 and 0.000
  raw absorbance Avg.: 0.4415
  raw absorbance, replicates 1-3: 0.4431 and 0.4376 and 0.4439
C8-D1A cells; [21]
  absorbance after subtraction of background signal, avg: 0.005 and 0.004833
  absorbance after subtraction of background signal, replicates 1-3: 0.002 and 0.004 and 0.008
  raw absorbance Avg.: 0.4488
  raw absorbance, replicates 1-3: 0.4484 and 0.4523 and 0.4458
C8-D1A cells; [22]
  viability at 0.05 µM: 12%
  viability at 0.1 µM: 23%
C8-D1A cells; TNFa + H2O2 + NPD1 50 nM (TNFa + H2O2 alone: 99)
  % cells apoptosed: 88%
C8-D1A cells; TNFa + H2O2 + NPD1 100 nM (TNFa + H2O2 alone: 99)
  % cells apoptosed: 77%
